Test results reported in patent publication US11464749B2, “Bismuth-thiol compositions and methods of use” (Microbion Corporation, priority 2018, dated 2022).
Marks after values point to notes of the source that are not given here.

Key:
Assay in all cases: Broth microdilution antifungal susceptibility (Example 13)
Type in all cases: cell-based
Candida albicans = system: Candida albicans
Candida glabrata = system: Candida glabrata
Candida krusei = system: Candida krusei
Candida auris = system: Candida auris
A. niger = A. niger ATCC 29508; for MIC0: comparators, read time not given
A. terreus = A. terreus MMX 8229; for MIC0: comparators, read time not given
A. fumigatus = conditions: for MIC0: comparators, read time not given
A. flavus = conditions: for MIC0: comparators, read time not given
[1] = isolate ATCC 90028 (Susceptible), 24 hr
[2] = isolate ATCC 204276 (MICA-R), 24 hr
[3] = isolate ATCC MYA-2732 (FLU-R, VORI-I), 24 hr
[4] = isolate MMX 7053 (Susceptible), 24 hr
[5] = isolate MMX 7067 (FLU-R, VORI-R), 24 hr
[6] = isolate MMX 7403 (Susceptible), 24 hr
[7] = isolate MMX 7424 (CASP-R, MICA-R), 24 hr
[8] = isolate MMX 7430 (Susceptible), 24 hr
[9] = isolate MMX 7437 (FLU-I), 24 hr
[10] = isolate MMX 7445 (FLU-R, VORI-R), 24 hr
[11] = isolate ATCC 90030 (Susceptible)
[12] = isolate ATCC MYA-2950 (Susceptible)
[13] = isolate MMX 7103 (CASP-R, MICA-R)
[14] = isolate MMX 7285 (CASP-R, MICA-R)
[15] = isolate MMX 7307 (CASP-R, MICA-R, FLU-R)
[16] = isolate ATCC 14243 (Susceptible)
[17] = isolate ATCC 96685 (Susceptible)
[18] = isolate MMX 9878 (MICA-I, VORI-I)
[19] = isolate MMX 9863 (FLU-R, VORI-R)
[20] = isolate MMX 9864 (FLU-R, VORI-R)
[21] = isolate MMX 9865 (FLU-R, VORI-R)
[22] = isolate MMX 9866 (FLU-R, VORI-R)
[23] = isolate MMX 9867 (FLU-R, VORI-R)
[24] = isolate MMX 9868 (FLU-R, VORI-R)
[25] = isolate MMX 9869 (FLU-R, VORI-R)
[26] = isolate MMX 9870 (FLU-R, VORI-R)
[27] = 48 hr only, insufficient growth for 24 hr read

C[C@@H](c1ncncc1F)[C@](O)(Cn1cncn1)c1ccc(F)cc1F [VORI]
0.03 µg/mL: MIC2 (50% inhibition) (Candida glabrata; isolate MMX 7087 (Susceptible)) | MIC2 (50% inhibition) (Candida auris; isolate MMX 9862 (Susceptible))
8 µg/mL: MIC2 (50% inhibition) (Candida auris; [21]) | MIC2 (50% inhibition) (Candida auris; [22]) | MIC2 (50% inhibition) (Candida auris; [23])
1 µg/mL: MIC2 (50% inhibition) (Candida glabrata; [14]) | MIC2 (50% inhibition) (Candida krusei; [18]) | MIC2 (50% inhibition) (Candida auris; isolate MMX 9871 (Susceptible)) | MIC0 (A. flavus; A. flavus ATCC 22546)
0.5 µg/mL: MIC2 (50% inhibition) (Candida albicans; [3]) | MIC2 (50% inhibition) (Candida krusei; [17]) | MIC0 (A. niger) | MIC0 (A. fumigatus; A. fumigatus ATCC 204305) | MIC0 (A. fumigatus; A. fumigatus ATCC MYA-3626) | MIC0 (A. flavus; A. flavus MMX 7935)
>8 µg/mL: MIC2 (50% inhibition) (Candida albicans; [5]) | MIC2 (50% inhibition) (Candida albicans; [10]) | MIC2 (50% inhibition) (Candida auris; [19]) | MIC2 (50% inhibition) (Candida auris; [24])
0.25 µg/mL: MIC2 (50% inhibition) (Candida krusei; isolate MMX 7125 (Susceptible)) | MIC2 (50% inhibition) (Candida krusei; isolate MMX 7153 (MICA-R)) | MIC2 (50% inhibition) (Candida krusei; isolate MMX 7155 (Susceptible)) | MIC2 (50% inhibition) (Candida krusei; isolate MMX 7563 (Susceptible)) | MIC0 (A. terreus) | MIC0 (A. fumigatus; A. fumigatus MMX 5934) | MIC0 (A. fumigatus; A. fumigatus MMX 5938)
2 µg/mL: MIC2 (50% inhibition) (Candida glabrata; isolate MMX 7093 (FLU-R)) | MIC2 (50% inhibition) (Candida glabrata; isolate MMX 7101 (FLU-R)) | MIC2 (50% inhibition) (Candida auris; [20]) | MIC2 (50% inhibition) (Candida auris; [25]) | MIC0 (A. fumigatus; A. fumigatus MMX 5939) | MIC0 (A. flavus; A. flavus ATCC 204304)
≤0.008 µg/mL: MIC2 (50% inhibition) (Candida albicans; [1]) | MIC2 (50% inhibition) (Candida albicans; [2]) | MIC2 (50% inhibition) (Candida albicans; [4]) | MIC2 (50% inhibition) (Candida albicans; [6]) | MIC2 (50% inhibition) (Candida albicans; [7]) | MIC2 (50% inhibition) (Candida albicans; [8])
0.12 µg/mL: MIC2 (50% inhibition) (Candida albicans; [9]) | MIC2 (50% inhibition) (Candida glabrata; [11]) | MIC2 (50% inhibition) (Candida glabrata; [12]) | MIC2 (50% inhibition) (Candida glabrata; [13]) | MIC2 (50% inhibition) (Candida krusei; isolate ATCC 6258 (MICA-I)) | MIC2 (50% inhibition) (Candida krusei; isolate MMX 7128 (Susceptible)) | MIC2 (50% inhibition) (Candida krusei; isolate MMX 7141 (Susceptible))
4 µg/mL: MIC2 (50% inhibition) (Candida glabrata; [15]) | MIC2 (50% inhibition) (Candida auris; [26])
0.06 µg/mL: MIC2 (50% inhibition) (Candida glabrata; isolate MMX 7111 (Susceptible)) | MIC2 (50% inhibition) (Candida glabrata; isolate MMX 7549 (Susceptible)) | MIC2 (50% inhibition) (Candida krusei; [16])

CC[C@H](C)C[C@H](C)CCCCCCCCC(=O)N[C@H]1C[C@@H](O)[C@@H](NCCN)NC(=O)[C@@H]2[C@@H](O)CCN2C(=O)[C@H]([C@H](O)CCN)NC(=O)[C@H]([C@H](O)[C@@H](O)c2ccc(O)cc2)NC(=O)[C@@H]2C[C@@H](O)CN2C(=O)[C@H]([C@@H](C)O)NC1=O [CASP]
8 µg/mL: MIC2 (50% inhibition) (Candida albicans; [7])
0.06 µg/mL: MIC2 (50% inhibition) (Candida albicans; [1]) | MIC2 (50% inhibition) (Candida albicans; [3]) | MIC2 (50% inhibition) (Candida albicans; [4]) | MIC2 (50% inhibition) (Candida albicans; [5]) | MIC2 (50% inhibition) (Candida albicans; [6]) | MIC2 (50% inhibition) (Candida albicans; [8]) | MIC2 (50% inhibition) (Candida albicans; [9]) | MIC2 (50% inhibition) (Candida glabrata; isolate MMX 7549 (Susceptible)) | MEC (minimum effective concentration) (A. fumigatus; A. fumigatus ATCC MYA-3626) | MEC (minimum effective concentration) (A. flavus; A. flavus ATCC 22546) | MEC (minimum effective concentration) (A. flavus; A. flavus ATCC 204304)
0.25 µg/mL: MIC2 (50% inhibition) (Candida albicans; [2]) | MIC2 (50% inhibition) (Candida krusei; isolate ATCC 6258 (MICA-I)) | MIC2 (50% inhibition) (Candida krusei; isolate MMX 7125 (Susceptible)) | MIC2 (50% inhibition) (Candida krusei; isolate MMX 7128 (Susceptible)) | MIC2 (50% inhibition) (Candida krusei; isolate MMX 7141 (Susceptible)) | MIC2 (50% inhibition) (Candida krusei; isolate MMX 7153 (MICA-R)) | MIC2 (50% inhibition) (Candida krusei; isolate MMX 7155 (Susceptible)) | MIC2 (50% inhibition) (Candida krusei; [18]) | MIC2 (50% inhibition) (Candida auris; [24]) | MIC2 (50% inhibition) (Candida auris; [25]) | MIC2 (50% inhibition) (Candida auris; [26]) | MEC (minimum effective concentration) (A. fumigatus; A. fumigatus ATCC 204305)
0.012 µg/mL: MIC2 (50% inhibition) (Candida krusei; [16])
0.5 µg/mL: MIC2 (50% inhibition) (Candida glabrata; [14])
0.03 µg/mL: MEC (minimum effective concentration) (A. flavus; A. flavus MMX 7935)
0.12^b μg/mL: MIC2 (50% inhibition) (Candida auris; [19]) | MIC2 (50% inhibition) (Candida auris; [22]) | MEC (minimum effective concentration) (A. terreus; [27]) | MEC (minimum effective concentration) (A. fumigatus; A. fumigatus MMX 5938, 48 hr only, insufficient growth for 24 hr read)
0.25^b μg/mL: MIC2 (50% inhibition) (Candida auris; [20]) | MIC2 (50% inhibition) (Candida auris; [21]) | MIC2 (50% inhibition) (Candida auris; isolate MMX 9871 (Susceptible))
0.12 µg/mL: MIC2 (50% inhibition) (Candida glabrata; [11]) | MIC2 (50% inhibition) (Candida glabrata; [12]) | MIC2 (50% inhibition) (Candida glabrata; isolate MMX 7087 (Susceptible)) | MIC2 (50% inhibition) (Candida glabrata; isolate MMX 7093 (FLU-R)) | MIC2 (50% inhibition) (Candida glabrata; isolate MMX 7101 (FLU-R)) | MIC2 (50% inhibition) (Candida glabrata; isolate MMX 7111 (Susceptible)) | MIC2 (50% inhibition) (Candida krusei; [17]) | MIC2 (50% inhibition) (Candida krusei; isolate MMX 7563 (Susceptible)) | MIC2 (50% inhibition) (Candida auris; isolate MMX 9862 (Susceptible)) | MIC2 (50% inhibition) (Candida auris; [23]) | MEC (minimum effective concentration) (A. fumigatus; A. fumigatus MMX 5934) | MEC (minimum effective concentration) (A. fumigatus; A. fumigatus MMX 5939)
0.06^a μg/mL: MIC2 (50% inhibition) (Candida albicans; isolate MMX 7445 (FLU-R, VORI-R), result after 48 hr incubation (insufficient growth at 24 hr))
>8 µg/mL: MIC2 (50% inhibition) (Candida glabrata; [13]) | MIC2 (50% inhibition) (Candida glabrata; [15])
0.06^b μg/mL: MEC (minimum effective concentration) (A. niger; [27])

C[C@@H]1[C@H](O)[C@@H](C)/C=C/C=C/C=C/C=C/C=C/C=C/C=C/[C@H](O[C@@H]2O[C@H](C)[C@@H](O)[C@H](N)[C@@H]2O)C[C@@H]2O[C@](O)(C[C@@H](O)C[C@@H](O)[C@H](O)CC[C@@H](O)C[C@@H](O)CC(=O)O[C@H]1C)C[C@H](O)[C@H]2C(=O)O [AMP B]
1 µg/mL: MIC0 (complete inhibition) (Candida auris; [25]) | MIC0 (complete inhibition) (Candida auris; [26]) | MIC0 (complete inhibition) (Candida auris; isolate MMX 9871 (Susceptible)) | MIC0 (A. fumigatus; A. fumigatus ATCC 204305) | MIC0 (A. fumigatus; A. fumigatus ATCC MYA-3626) | MIC0 (A. fumigatus; A. fumigatus MMX 5934) | MIC0 (A. fumigatus; A. fumigatus MMX 5938) | MIC0 (A. fumigatus; A. fumigatus MMX 5939) | MIC0 (A. flavus; A. flavus ATCC 22546) | MIC0 (A. flavus; A. flavus ATCC 204304) | MIC0 (A. flavus; A. flavus MMX 7935)
0.25 µg/mL: MIC0 (complete inhibition) (Candida albicans; [1]) | MIC0 (complete inhibition) (Candida albicans; [2]) | MIC0 (complete inhibition) (Candida albicans; [3]) | MIC0 (complete inhibition) (Candida albicans; [5]) | MIC0 (complete inhibition) (Candida albicans; [6]) | MIC0 (complete inhibition) (Candida albicans; [7]) | MIC0 (complete inhibition) (Candida albicans; [8]) | MIC0 (complete inhibition) (Candida albicans; [9]) | MIC0 (complete inhibition) (Candida glabrata; [11]) | MIC0 (complete inhibition) (Candida glabrata; isolate MMX 7093 (FLU-R)) | MIC0 (complete inhibition) (Candida glabrata; isolate MMX 7101 (FLU-R)) | MIC0 (complete inhibition) (Candida glabrata; [13]) | MIC0 (complete inhibition) (Candida glabrata; isolate MMX 7111 (Susceptible)) | MIC0 (complete inhibition) (Candida glabrata; [14]) | MIC0 (complete inhibition) (Candida glabrata; [15]) | MIC0 (complete inhibition) (Candida glabrata; isolate MMX 7549 (Susceptible)) | MIC0 (complete inhibition) (Candida krusei; [16]) | MIC0 (complete inhibition) (Candida krusei; isolate MMX 7141 (Susceptible)) | MIC0 (complete inhibition) (Candida krusei; isolate MMX 7155 (Susceptible)) | MIC0 (complete inhibition) (Candida auris; isolate MMX 9862 (Susceptible)) | MIC0 (complete inhibition) (Candida auris; [20]) | MIC0 (complete inhibition) (Candida auris; [21]) | MIC0 (complete inhibition) (Candida auris; [24]) | MIC0 (A. niger) | MIC0 (A. terreus)
0.5 µg/mL: MIC0 (complete inhibition) (Candida krusei; isolate ATCC 6258 (MICA-I)) | MIC0 (complete inhibition) (Candida krusei; [17]) | MIC0 (complete inhibition) (Candida krusei; isolate MMX 7125 (Susceptible)) | MIC0 (complete inhibition) (Candida krusei; isolate MMX 7128 (Susceptible)) | MIC0 (complete inhibition) (Candida krusei; isolate MMX 7153 (MICA-R)) | MIC0 (complete inhibition) (Candida krusei; isolate MMX 7563 (Susceptible)) | MIC0 (complete inhibition) (Candida krusei; [18]) | MIC0 (complete inhibition) (Candida auris; [22]) | MIC0 (complete inhibition) (Candida auris; [23])
0.12 µg/mL: MIC0 (complete inhibition) (Candida albicans; [4]) | MIC0 (complete inhibition) (Candida albicans; [10]) | MIC0 (complete inhibition) (Candida glabrata; [12]) | MIC0 (complete inhibition) (Candida glabrata; isolate MMX 7087 (Susceptible)) | MIC0 (complete inhibition) (Candida auris; [19])
